Results on 6 compounds are retold here after patent publication US20240158446A1, “CYCLIC COMPOUND HAVING SELECTIVE INHIBITORY ACTION ON KRAS OVER HRAS AND NRAS” (CHUGAI SEIYAKU KABUSHIKI KAISHA, priority 2021, published 2024).

The target of assay [1] is GDP-bound NRAS wild-type protein (Homo sapiens, UniProt P01111). Description: Binding to NRAS by surface plasmon resonance (SPR), Single Cycle Kinetics. In general terms: Surface plasmon resonance follows binding to a sensor surface in real time, without labels.
Sequence of GDP-bound NRAS wild-type protein (P01111 whole entry): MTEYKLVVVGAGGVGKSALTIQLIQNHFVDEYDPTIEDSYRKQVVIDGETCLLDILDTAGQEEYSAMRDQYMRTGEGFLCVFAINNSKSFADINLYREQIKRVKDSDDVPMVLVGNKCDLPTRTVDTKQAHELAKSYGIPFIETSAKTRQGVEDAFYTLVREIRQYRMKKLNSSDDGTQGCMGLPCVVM
The target of assay [2] is GDP-bound HRAS wild-type protein (Homo sapiens, UniProt P01112). The assay is described as follows: Binding to HRAS by surface plasmon resonance (SPR), Single Cycle Kinetics.
Sequence of GDP-bound HRAS wild-type protein (P01112 whole entry): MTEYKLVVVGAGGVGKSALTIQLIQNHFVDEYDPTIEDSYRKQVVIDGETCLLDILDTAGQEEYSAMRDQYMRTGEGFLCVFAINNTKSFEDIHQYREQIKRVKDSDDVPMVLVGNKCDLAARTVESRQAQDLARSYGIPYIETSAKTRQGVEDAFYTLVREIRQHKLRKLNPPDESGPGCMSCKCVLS
The mark [3] stands for this setting: SPR, GDP-bound NRAS wild-type protein vs GDP-bound KRAS wild-type protein.
Setting [4] is: SPR, GDP-bound HRAS wild-type protein vs GDP-bound KRAS wild-type protein.

In the case of `CCC[C@H]1C(=O)N[C@@H]([C@@H](C)CC)C(=O)N(C)CC(=O)N(C)[C@H]2C/C=C\CCN(C2=O)[C@@H](Cc2ccc(C)cc2)C(=O)N(C)CC(=O)N[C@@H](CCc2cc(Cl)c3sccc3c2)C(=O)N2C[C@H](OCC)C[C@H]2C(=O)NC2(CC(C)(C)C2)C(=O)N(C)[C@@H](C2CCCC2)C(=O)N(C)[C@H](C(=O)N(C)C)CC(=O)N1C` [PP2947], the “NRAS/KRAS (ratio of KD value with respect to GDP-bound NRAS wild-type protein to KD value with respect to KRAS)” value in assay [1] (SPR KD ratio NRAS/KRAS, class symbols) was “B (a compound having 3 or more and less than 10 is denoted as B)”. The “HRAS/KRAS (ratio of KD value with respect to GDP-bound HRAS wild-type protein to KD value with respect to KRAS)” value in assay [2] (SPR KD ratio HRAS/KRAS, class symbols) is “B (a compound having 3 or more and less than 10 is denoted as B)”.

`CCO[C@@H]1C[C@H]2C(=O)NC3(CCC3)C(=O)N(C)[C@@H](C3CCCC3)C(=O)N(C)[C@H](C(=O)N(C)CC)CC(=O)N(C)[C@H]3CCCCCCc4ccc(cc4)C[C@@H](C(=O)N(C)CC(=O)N[C@@H](CCc4ccc(C(F)(F)F)c(OC)c4)C(=O)N2C1)N1CC/C=C\C[C@@H](C1=O)N(C)C(=O)CN(C)C(=O)[C@H]([C@@H](C)CC)NC3=O` [PP2263]: in assay [1] (setting [3]), the “NRAS/KRAS (ratio of KD value for NRAS to KD value for KRAS)” value was “A (a compound having 10 or more and less than 20 is denoted as A)”. In addition, in assay [2] (setting [4]), the “HRAS/KRAS (ratio of KD value for HRAS to KD value for KRAS)” value was “A (a compound having 10 or more and less than 20 is denoted as A)”.

For `CCC[C@@H]1C[C@H]2C(=O)NC3(CCCC3)C(=O)N(C)[C@@H](C3CCCC3)C(=O)N(C)[C@H](C(=O)N(C)C)CC(=O)N(C)[C@@H](CC(C)C)C(=O)N[C@@H]([C@@H](C)CC)C(=O)N(C)CC(=O)N(C)[C@H]3C/C=C\CCN(C3=O)[C@@H](Cc3ccc(C)cc3)C(=O)N(C)CC(=O)N[C@@H](CCc3cc(F)c(C(F)(F)F)c(F)c3)C(=O)N2C1` [PP2193], the “NRAS/KRAS (ratio of KD value for NRAS to KD value for KRAS)” value in assay [1] (setting [3]) is “A (a compound having 10 or more and less than 20 is denoted as A)”. In addition, in assay [2] (setting [4]), the “HRAS/KRAS (ratio of KD value for HRAS to KD value for KRAS)” value is “A (a compound having 10 or more and less than 20 is denoted as A)”.

For `CCO[C@@H]1C[C@H]2C(=O)NC3(CCC3)C(=O)N(C)[C@@H](C3CCCC3)C(=O)N(C)[C@H](C(=O)N3CCOCC3)CC(=O)N(C)[C@@H](CC3CCCCC3)C(=O)N[C@@H]([C@@H](C)CC)C(=O)N(C)CC(=O)N(C)[C@H]3CCCCCN(C3=O)[C@@H](Cc3ccc(C(F)(F)F)cc3)C(=O)N(C)CC(=O)N[C@@H](CCc3cc(F)c(C(F)(F)F)c(F)c3)C(=O)N2C1` [PP0686], the “NRAS/KRAS (ratio of KD value with respect to NRAS to KD value with respect to KRAS)” value in assay [1] (setting [3]) is “B (a compound having 3 or more and less than 10 is denoted as B)”. Also, the “HRAS/KRAS (ratio of KD value with respect to HRAS to KD value with respect to KRAS)” value in assay [2] (setting [4]) was “B (a compound having 3 or more and less than 10 is denoted as B)”.

As to `CCO[C@@H]1C[C@H]2C(=O)NC3(CCC3)C(=O)N(C)[C@@H]([C@H](C)CC)C(=O)N(C)[C@H](C(=O)N3CCOCC3)CC(=O)N(C)[C@@H](CC(C)C)C(=O)N[C@@H]([C@@H](C)CC)C(=O)N(C)CC(=O)N(C)[C@H]3CCCCCN(C3=O)[C@@H](Cc3ccc(C(F)(F)F)cc3)C(=O)N(C)CC(=O)N[C@@H](CCc3cc(F)c(C(F)(F)F)c(F)c3)C(=O)N2C1` [PP0821], the “NRAS/KRAS (ratio of KD value for NRAS to KD value for KRAS)” value in assay [1] (setting [3]) was “A (a compound having 10 or more and less than 20 is denoted as A)”. Moreover, the “HRAS/KRAS (ratio of KD value for HRAS to KD value for KRAS)” value in assay [2] (setting [4]) was “B (a compound having 3 or more and less than 10 is denoted as B)”.

As to `CC[C@H](C)[C@@H]1NC(=O)[C@H](CC(C)C)N(C)C(=O)C[C@@H](C(=O)N(C)C)N(C)C(=O)[C@H](C2CCCC2)N(C)C(=O)C2(CC(C)(C)C2)NC(=O)[C@@H]2C[C@H](C)CN2C(=O)[C@H](CCc2ccc(C(F)(F)F)c(OC)c2)NC(=O)CN(C)C(=O)[C@H](Cc2ccc(C)cc2)N2CC/C=C\C[C@@H](C2=O)N(C)C(=O)CN(C)C1=O` [PP1905], the “NRAS/KRAS (KD ratio)” value in assay [1] (ratio of KD for GDP-bound NRAS wild-type protein to KD for KRAS, SPR) is “A (a compound having 10 or more and less than 20 is denoted as A)”. Also, in assay [2] (ratio of KD for GDP-bound HRAS wild-type protein to KD for KRAS, SPR), the “HRAS/KRAS (KD ratio)” value was “A (a compound having 10 or more and less than 20 is denoted as A)”.
